Laboratory results published in US10654818B2, “Furane derivatives as inhibitors of ATAD2” (BAYER PHARMA AKTIENGESELLSCHAFT, priority 2015, dated 2020).

Legend:
MCF7 breast cancer cells = experiment: Cell proliferation assay (alamarBlue), MCF7; assay type: cell-based; conditions: Homo sapiens, 72 h incubation, GI50 = half-maximal growth inhibition
Experimental: (§1) The effect of ATAD2 inhibitory compounds on cancer cell proliferation might be measured as below. For example; MCF7 breast cancer cells might be seeded into 96-well microtiter plates at 2000 cells/well in 90 μl cell culture media (RPMI 1640, 10% FCS, 2 mM L-Glutamine, 10 μg/ml human Insulin, […]) and incubated for 24 h at 37° C. and 5% CO2. Note, the culturing conditions might vary from cell line to cell line depending on their standard culturing conditions. Compounds might be then delivered to the microtiter assay plates and, following a 72 h long incubation period at 37° C. and 5% CO2, the viability of the cells might be measured with addition of alamarBlue® (Invitrogen) to the medium in Victor X3 Multilabel Plate Reader (Perkin Elmer).
(§2) GI50 means half-maximal growth inhibition.

NCl-H526 lung cancer = experiment: Cell proliferation assay (alamarBlue), NCl-H526; assay type: cell-based; conditions: GI50 = half-maximal growth inhibition
Experimental: as §1, §2

[1] = molecular target: T1, recombinant, N-terminally GST-tagged ATAD2 bromodomain amino acids 981-1108 (Homo sapiens, UniProt Q6PL18); experiment: TR-FRET assay: disruption of the interaction between ATAD2 and acetylated Histone H4 (Ac-H4) peptide; assay type: binding; conditions: inhibition of ATAD2/Ac-H4 complex formation; 10 nM ATAD2, 50 nM Ac-H4 peptide
T1 construct: ATAD2 bromodomain amino acids 981-1108; made in house; host or cells: E. coli
T1 sequence (Q6PL18 981-1108): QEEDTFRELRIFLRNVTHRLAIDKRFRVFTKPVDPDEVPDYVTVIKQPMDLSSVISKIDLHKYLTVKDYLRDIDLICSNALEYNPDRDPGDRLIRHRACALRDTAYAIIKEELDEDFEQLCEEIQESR
Outline: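 10 nM protein (final) pre-incubated 10 min at 22 °C with compound (0.1 nM-20 μM, 11 points, duplicate), then 50 nM biotinylated Ac-H4 peptide plus anti-GST-XL665/streptavidin-Eu added for 1 h at 22 °C in HEPES pH 7.5 buffer. 665/622 nm emission ratio read; IC50 from 4-parameter fit of normalized inhibition.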

| Compound | GI50 (MCF7 breast cancer cells) | GI50 (NCl-H526 lung cancer) | IC50 [1] |
| --- | --- | --- | --- |
| Cc1ccc([C@@H](C)NCc2ccc(-c3ccc(Cl)c(C(=O)N[C@@H](CO)Cc4ccc(C#N)cc4)c3)o2)cc1 [Example 4, 2-chloro-N-[(2R)-1-(4-cyanophenyl)-3-hydroxypropan-2-yl]-5-[5-({[(1R)-1-(4-methylphenyl)ethyl]amino}methyl)-2-furyl]benzamide] | 11500 nM | 15400 nM | 393 nM |
| Cc1ccc([C@@H](C)NCc2ccc(-c3ccc(Cl)c(C(=O)N[C@@H](CCN4CC5(CN(C)C5)C4)Cc4ccc(C#N)cc4)c3)o2)cc1 [Example 36, 2-chloro-N-[(2R)-1-(4-cyanophenyl)-4-(6-methyl-2,6-diazaspiro[3.3]hept-2-yl)butan-2-yl]-5-[5-({[(1R)-1-(4-methylphenyl)ethyl]amino}methyl)-2-furyl]benzamide] | 1280 nM | 1290 nM | 186 nM |
| Cc1ccc([C@@H](C)NCc2ccc(-c3ccc(Cl)c(C(=O)N[C@@H](CNC[C@@H]4[C@H]5CNC[C@@H]45)Cc4ccc(C#N)cc4)c3)o2)cc1 [Example 66, N-[(2R)-1-{[(1R,5S,6r)-3-azabicyclo[3.1.0]hex-6-ylmethyl]amino}-3-(4-cyanophenyl)propan-2-yl]-2-chloro-5-[5-({[(1R)-1-(4-methylphenyl)ethyl]amino}methyl)-2-furyl]benzamide] | 3760 nM | 5100 nM | 245 nM |
| C[C@@H](NCc1ccc(-c2ccc(Cl)c(C(=O)N[C@@H](CN)Cc3ccc(C#N)cc3)c2)o1)c1ccc(C(F)(F)F)cc1 [Example 75, N-[(2R)-1-amino-3-(4-cyanophenyl)propan-2-yl]-2-chloro-5-{5-[({(1R)-1-1-[4-(trifluoromethyl)phenyl]ethyl}amino)methyl]-2-furyl}benzamide] |  |  | 567 nM |
| Cc1ccc([C@@H](C)NCc2ccc(-c3cc(F)c(Cl)c(C(=O)N[C@@H](CO)Cc4ccc(C#N)cc4)c3)o2)cc1 [Example 77, 2-chloro-N-[(2R)-1-(4-cyanophenyl)-3-hydroxypropan-2-yl]-3-fluoro-5-[5-({[(1R)-1-(4-methylphenyl)ethyl]amino}methyl)-2-furyl]benzamide] |  |  | 598 nM |
| Cc1ccc([C@@H](C)NCc2ccc(-c3cc(C(=O)N[C@@H](CO)Cc4ccc(C#N)cc4)c(Cl)cc3Cl)o2)cc1 [Example 78, 2,4-dichloro-N-[(2R)-1-(4-cyanophenyl)-3-hydroxypropan-2-yl]-5-[5-({[(1R)-1-(4-methylphenyl)ethyl]amino}methyl)-2-furyl]benzamide] |  |  | 1230 nM |
| COc1cc(Cl)c(C(=O)N[C@@H](CN)Cc2ccc(C#N)cc2)cc1-c1ccc(CN[C@H](C)c2ccc(C)cc2)o1 [Example 83, N-[(2R)-1-amino-3-(4-cyanophenyl)propan-2-yl]-2-chloro-4-methoxy-5-[5-({[(1R)-1-(4-methylphenyl)ethyl]amino}methyl)-2-furyl]benzamide] |  |  | 233 nM |
| COc1cc(Cl)c(C(=O)N[C@@H](CN[C@H]2CC[C@@H](N)CC2)Cc2ccc(C#N)cc2)cc1-c1ccc(CN[C@H](C)c2ccc(C)cc2)o1 [Example 87, N-[(2R)-1-[(4-aminocyclohexyl)amino]-3-(4-cyanophenyl)propan-2-yl]-2-chloro-4-methoxy-5-[5-({[(1R)-1-(4-methylphenyl)ethyl]amino}methyl)-2-furyl]benzamide] |  |  | 216 nM |
| COc1cc(Cl)c(C(=O)N[C@@H](CN[C@H]2CC[C@@H](N)CC2)Cc2ccc(C#N)c(C)c2)cc1-c1ccc(CN[C@H](C)c2ccc(C)cc2)o1 [Example 88, N-[(2R)-1-[(4-aminocyclohexyl)amino]-3-(4-cyano-3-methylphenyl)propan-2-yl]-2-chloro-4-methoxy-5-[5-({[(1R)-1-(4-methylphenyl)ethyl]amino}methyl)-2-furyl]-benzamide] |  |  | 128 nM |
| CNC(=O)C[C@@H](Cc1ccc(C#N)cc1)NC(=O)c1ccc(C#N)c(-c2ccc(CN[C@H](C)c3ccc(C)cc3)o2)c1 [Example 91] |  |  | 13400 nM |
| CNC(=O)C[C@@H](Cc1ccccc1)NC(=O)c1cc(-c2ccc(CN[C@H](C)c3ccc(C)cc3)o2)ccc1Cl [Example 92] |  |  | 8370 nM |
| CNC(=O)C[C@@H](Cc1ccc(C#N)cc1)NC(=O)c1cc(-c2ccc(CNC(C)(C)c3ccccc3)o2)ccc1Cl [Example 93] |  |  | 7690 nM |
| CNC(=O)C[C@@H](Cc1ccc(C#N)cc1)NC(=O)c1cc(-c2ccc(CNC(C)(C)c3ccc(C)cc3)o2)ccc1Cl [Example 94] |  |  | 2980 nM |

Further compounds by falling IC50 [1], results first:

| GI50 (MCF7 breast cancer cells) | GI50 (NCl-H526 lung cancer) | IC50 [1] | Compound |
| --- | --- | --- | --- |
|  |  | 2820 nM | CC(C)(NCc1ccc(-c2ccc(Cl)c(C(=O)NC(Cc3ccc(C#N)cc3)C(N)=O)c2)o1)c1ccc(Cl)cc1 (centres unmarked) [Example 95] |
|  |  | 2650 nM | Cc1ccc([C@@H](C)NCc2ccc(-c3ccc(Cl)c(C(=O)N[C@@H](CO)Cc4ccccc4)c3)o2)cc1 [Example 96] |
|  |  | 2060 nM | CNC(=O)C[C@@H](Cc1ccc(C#N)cc1)NC(=O)c1cc(-c2ccc(CN[C@H](C)c3ccc(Cl)cc3)o2)ccc1Cl [Example 89, 2-chloro-5-[5-({[(1R)-1-(4-chlorophenyl)ethyl]amino}methyl)-2-furyl]-N-[(2R)-1-(4-cyanophenyl)-4-(methylamino)-4-oxobutan-2-yl]benzamide] |
|  |  | 1400 nM | Cc1ccc([C@@H](C)NCc2ccc(-c3cc(C(=O)N[C@@H](CO)Cc4ccc(C#N)cc4)ccc3C#N)o2)cc1 [Example 79, 4-cyano-N-[(2R)-1-(4-cyanophenyl)-3-hydroxypropan-2-yl]-3-[5-({[(1R)-1-(4-methylphenyl)ethyl]amino}methyl)-2-furyl]benzamide] |
| 11900 nM | > 30000 nM | 1100 nM | Cc1ccc([C@@H](C)NCc2ccc(-c3ccc(Cl)c(C(=O)N[C@@H](C)Cc4ccc(C#N)cc4)c3)o2)cc1 [Example 42, 2-chloro-N-[(2S)-1-(4-cyanophenyl)propan-2-yl]-5-[5-({[(1R)-1-(4-methylphenyl)ethyl]amino}methyl)-2-furyl]benzamide] |
|  |  | 671 nM | CC(C)(NCc1ccc(-c2ccc(Cl)c(C(=O)N[C@@H](CN)Cc3ccc(C#N)cc3)c2)o1)c1ccc(C(F)(F)F)cc1 [Example 74, N-[(2R)-1-amino-3-(4-cyanophenyl)propan-2-yl]-2-chloro-5-{5-[({2-[4-(trifluoro-methyl)phenyl]propan-2-yl}amino)methyl]-2-furyl}benzamide] |
|  |  | 415 nM | COc1cc(Cl)c(C(=O)N[C@H](Cc2ccc(C#N)cc2)C(=O)N[C@H]2CC[C@H](N)CC2)cc1-c1ccc(CN[C@H](C)c2ccc(C)cc2)o1 [Example 85, N-(trans-4-aminocyclohexyl)-Nα-{2-chloro-4-methoxy-5-[5-({[(1R)-1-(4-methylphenyl)ethyl]amino}methyl)-2-furyl]benzoyl}-4-cyano-D-phenylalaninamide] |
|  |  | 407 nM | COc1cc(C)c(C(=O)N[C@@H](CO)Cc2ccc(C#N)cc2)cc1-c1ccc(CN[C@H](C)c2ccc(C)cc2)o1 [Example 80, N-[(2R)-1-(4-cyanophenyl)-3-hydroxypropan-2-yl]-4-methoxy-2-methyl-5-[5-({[(1R)-1-(4-methylphenyl)ethyl]amino}methyl)-2-furyl]benzamide] |
|  |  | 350 nM | COc1cc(Cl)c(C(=O)N[C@@H](CO)Cc2ccc(C#N)c(C)c2)cc1-c1ccc(CN[C@H](C)c2ccc(C)cc2)o1 [Example 82] |
| 2510 nM | 3600 nM | 273 nM | Cc1ccc([C@@H](C)NCc2ccc(-c3ccc(Cl)c(C(=O)N[C@@H](CN)Cc4ccc(C#N)cc4)c3)o2)cc1 [Example 53, N-[(2R)-1-amino-3-(4-cyanophenyl)propan-2-yl]-2-chloro-5-[5-({[(1R)-1-(4-methylphenyl)ethyl]amino}methyl)-2-furyl]benzamide] |
|  |  | 270 nM | COc1cc(Cl)c(C(=O)N[C@@H](CN)Cc2ccc(C#N)c(C)c2)cc1-c1ccc(CN[C@H](C)c2ccc(C)cc2)o1 [Example 84, N-[(2R)-1-amino-3-(4-cyano-3-methylphenyl)propan-2-yl]-2-chloro-4-methoxy-5-[5-({[(1R)-1-(4-methylphenyl)ethyl]amino}methyl)-2-furyl]benzamide] |
| 1420 nM | 1250 nM | 184 nM | Cc1ccc([C@@H](C)NCc2ccc(-c3ccc(Cl)c(C(=O)N[C@@H](CCNCC4CCN(C)CC4)Cc4ccc(C#N)cc4)c3)o2)cc1 [Example 33, 2-chloro-N-[(2R)-1-(4-cyanophenyl)-4-{[(1-methylpiperidin-4-yl)methyl]amino}butan-2-yl]-5-[5-({[(1R)-1-(4-methylphenyl)ethyl]amino}methyl)-2-furyl]benzamide] |
|  |  | 132 nM | Cc1ccc([C@@H](C)NCc2ccc(-c3ccc(Cl)c(C(=O)N[C@@H](CNC4CCNCC4F)Cc4ccc(C#N)cc4)c3)o2)cc1 (some centres unmarked) [Example 73] |
| 3180 nM | 1250 nM | 107 nM | Cc1ccc([C@@H](C)NCc2ccc(-c3ccc(Cl)c(C(=O)N[C@@H](CN[C@H]4CC[C@@H](N)CC4)Cc4ccc(C#N)cc4)c3)o2)cc1 (single isomer, unassigned) [Example 71] |
